Measured values from US20230339886A1 (University of Florida Research Foundation, Incorporated, priority 2020, published 2023).

Experiments:
[1] = biological target: T1, REV-ERBα LBD (human; residues 281-614 Δ324-422) (Homo sapiens, UniProt P20393, DEL324-422); assay: TR-FRET corepressor interaction assay (REV-ERBα LBD, FITC-SMRT peptide); type: biochemical; conditions: Table 2, read-out: REVERBα agonism (EC50 class, FRET assay)
T1 construct: 6×Histag-REV-ERBα LBD (human; residues 281-614 Δ324-422); made in house; host or cells: Escherichia coli
Procedure, shortened: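 Compound serial dilutions (in DMSO, triplicate) incubated 2 h at 4 °C; Tb donor excited at 340 nm, emission read at 495 nm and FITC acceptor at 520 nm. TR-FRET ratio (520/495 nm) plotted against ligand concentration and fitted to a sigmoidal dose-response curve.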

[2] = biological target: T2, REV-ERBβ (Homo sapiens, UniProt Q14995); assay: TR-FRET corepressor interaction assay (REV-ERBβ, FITC-SMRT peptide); type: biochemical; conditions: Table 2, read-out: REVERBβ agonism (EC50 class, FRET assay)
T2 construct: 6×Histag-REV-ERBα LBD (human; residues 381-579); made in house; host or cells: Escherichia coli
T2 sequence (Q14995 381-579): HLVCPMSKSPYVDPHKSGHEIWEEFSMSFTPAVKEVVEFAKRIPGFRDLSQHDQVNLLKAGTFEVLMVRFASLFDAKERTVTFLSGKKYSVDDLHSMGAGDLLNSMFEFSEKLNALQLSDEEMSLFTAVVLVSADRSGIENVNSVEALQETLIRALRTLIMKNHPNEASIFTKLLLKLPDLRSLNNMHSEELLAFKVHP
Description: TR-FRET corepressor interaction assay. The time-resolved fluorescence resonance energy transfer (TR-FRET) assay was performed in black low-volume 384-well plates (Greiner). […] Ligand stocks were prepared via serial dilution in DMSO, added to wells in triplicate, and plates were incubated at 4° C. for 2 h and read using a BioTek Synergy Neo multimode plate reader. The Tb donor was excited at 340 nm; its fluorescence emission was monitored at 495 nm, and the acceptor FITC emission was measured at 520 nm; and the TR-FRET ratio was calculated as the signal at 520 nm divided by the signal at 495 nm. Data were plotted using GraphPad Prism as TR-FRET ratio vs. ligand concentration and fit to sigmoidal dose response curve equation.
Exemplary compounds of the present disclosure were assayed as described above to assess agonism of REV-ERBα and REV-ERBβ.

T1 sequence (P20393 with tags, fused parts or gaps DEL324-422): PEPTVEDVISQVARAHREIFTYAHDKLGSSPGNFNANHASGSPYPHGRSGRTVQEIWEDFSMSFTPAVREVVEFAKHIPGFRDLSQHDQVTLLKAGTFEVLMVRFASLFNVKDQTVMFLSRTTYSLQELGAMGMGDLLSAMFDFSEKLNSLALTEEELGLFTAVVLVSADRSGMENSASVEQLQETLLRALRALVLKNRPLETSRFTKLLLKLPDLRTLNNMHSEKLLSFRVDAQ
T1 sequence (Q9Y618 2335-2356 partner limits assumed): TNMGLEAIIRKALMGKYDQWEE

EC50 [1] [nM] | EC50 [2] [nM] | Compound
< 500 | 500 to 3000 | CC(C)(C)Cc1cn(CCNS(=O)(=O)C2CC2)c2ccc(-c3ccccc3C(F)(F)F)cc12 [Example 212, N-(2-(3-neopentyl-5-(2-(trifluoromethyl)phenyl)-1H-indol-1-yl)ethyl)cyclopropane sulfonamide]
< 500 | 500 to 3000 | CC(C)(C)Cc1cn(CCNS(=O)(=O)C2CC2)c2ccc(-c3c(Cl)cccc3Cl)cc12 [Example 214, N-(2-(5-(2,6-dichlorophenyl)-3-neopentyl-1H-indol-1-yl)ethyl)cyclopropane-sulfonamide]
< 500 | 500 to 3000 | CC(C)(C)Cc1cn(CCNS(=O)(=O)C2CC2)c2ccc(-c3cccc(F)c3C(F)(F)F)cc12 [Example 227, N-(2-(5-(3-fluoro-2-(trifluoromethyl)phenyl)-3-neopentyl-1H-indol-1-yl)ethyl) cyclopropanesulfonamide]
500 to 3000 | > 3000 | Cc1ccc2c(c1)c(CC(C)(C)C)cn2CCNS(=O)(=O)C1CC1 [Example 296, N-(2-(5-methyl-3-neopentyl-1H-indol-1-yl)ethyl)cyclopropanesulfonamide]
500 to 3000 | 500 to 3000 | CC(C)(C)Cc1cn(CCNS(=O)(=O)C2CC2)c2ccc(-c3c(Cl)cc(F)cc3Cl)cc12 [Example 297, N-(2-(5-(2,6-dichloro-4-fluorophenyl)-3-neopentyl-1H-indol-1-yl)ethyl) cyclo-propane sulfonamide]
500 to 3000 | > 3000 | CC(C)(C)Cc1cn(CCNS(=O)(=O)C2CC2)c2ccc(Br)cc12 [Example 298, N-(2-(5-bromo-3-neopentyl-1H-indol-1-yl)ethyl)cyclopropanesulfonamide]
< 500 | 500 to 3000 | CC(C)(C)Cc1cn(CCNS(=O)(=O)C2CC2)c2ccc(-c3ccc(C(F)(F)F)cc3C(F)(F)F)cc12 [Example 299, N-(2-(5-(2,4-bis(trifluoromethyl)phenyl)-3-neopentyl-1H-indol-1-yl)ethyl)cyclo-propanesulfonamide]
< 500 | 500 to 3000 | CC(C)(C)Cc1cn(CCNS(=O)(=O)C2CC2)c2ccc(-c3ccc(C(F)(F)F)cc3Cl)cc12 [Example 300, N-(2-(5-(2-chloro-4-(trifluoromethyl)phenyl)-3-neopentyl-1H-indol-1-yl)ethyl) cyclopropanesulfonamide]
< 500 | 500 to 3000 | CC(C)(C)Cc1cn(CCNS(=O)(=O)C2CC2)c2ccc(-c3ccc(F)cc3C(F)(F)F)cc12 [Example 301, N-(2-(5-(4-fluoro-2-(trifluoromethyl)phenyl)-3-neopentyl-1H-indol-1-yl)ethyl) cyclopropanesulfonamide]
< 500 | < 500 | Cc1ccc2c([C@H](NS(=O)(=O)C3CC3)C(F)(F)F)cn(CC(C)C)c2c1 [Example 309, (S)—N-(2,2,2-trifluoro-1-(1-isobutyl-6-methyl-1H-indol-3-yl)ethyl)cyclopropanesulfonamide]
< 500 | 500 to 3000 | CC(C)Cn1cc([C@H](NS(=O)(=O)C2CC2)C(F)(F)F)c2ccc(C3CC3)cc21 [Example 310, (S)—N-(1-(6-cyclopropyl-1-isobutyl-1H-indol-3-yl)-2,2,2-trifluoroethyl)cyclopropanesulfonamide]
< 500 | > 3000 | CC(C)Cn1cc([C@H](NS(=O)(=O)C2CC2)C(F)(F)F)c2cc(F)c(-c3ccccc3C(F)(F)F)cc21 [Example 313, (S)—N-(2,2,2-trifluoro-1-(5-fluoro-1-isobutyl-6-(2-(trifluoromethyl)phenyl)-1H-indol-3-yl)ethyl)cyclopropanesulfonamide]
< 500 | 500 to 3000 | CC(C)(C)Cn1cc([C@H](NS(=O)(=O)C2CC2)C(F)(F)F)c2ccc(-c3ccccc3C(F)(F)F)cc21 [Example 322, (S)—N-(2,2,2-trifluoro-1-(1-neopentyl-6-(2-(trifluoromethyl)phenyl)-1H-indol-3-yl)ethyl)cyclopropanesulfonamide]
< 500 | > 3000 | CN(C)S(=O)(=O)N[C@@H](c1cn(CC(C)(C)C)c2cc(-c3ccccc3C(F)(F)F)ccc12)C(F)(F)F [Example 323, {[(1S)-1-[1-(2,2-dimethylpropyl)-6-[2-(trifluoromethyl)phenyl]-1H-indol-3-yl]-2,2,2-trifluoroethyl]sulfamoyl}dimethylamine]
< 500 | > 3000 | CN(C)S(=O)(=O)N[C@@H](c1cn(CC(C)(C)C)c2cc(C3CC3)c(F)cc12)C(F)(F)F [Example 328, {[(1S)-1-[6-cyclopropyl-1-(2,2-dimethylpropyl)-5-fluoro-1H-indol-3-yl]-2,2,2-trifluoroethyl]sulfamoyl}dimethylamine]

The remaining lines, values behind:

Compound | EC50 [1] [nM] | EC50 [2] [nM]
CCC(C)n1cc(CCNS(=O)(=O)N(C)C)c2ccc(-c3ccncc3)cc21 (stereo not shown) [Compound 230] | < 500 | 500 to 3000
CC(C)CCn1cc(CCNS(=O)(=O)N(C)C)c2ccc(-c3ccncc3)cc21 [Compound 231] | < 500 | 500 to 3000
CC(C)Cn1cc(CCNS(=O)(=O)C(C)C)c2cc(F)c(-c3ccccc3Cl)cc21 [Compound 262] | < 500 | > 3000
CC(C)Cn1cc(CCNS(=O)(=O)C(C)C)c2cc(F)c(-c3ccncc3Cl)cc21 [Compound 263] | < 500 | > 3000
CC(C)Cn1cc(CNS(=O)(=O)C(C)C)c2cc(F)c(-c3ccncc3)cc21 [Compound 265] | < 500 | > 3000
CC(C)(C)Cn1cc(CNS(=O)(=O)C2CC2)c2cc(F)c(-c3ccccc3C(F)(F)F)cc21 [Compound 278] | < 500 | 500 to 3000
CC(C)(C)Cn1cc(CNS(=O)(=O)C2CC2)c2cc(F)c(-c3ccncc3Cl)cc21 [Compound 279] | < 500 | > 3000
O=S(=O)(NCc1cn(CC2(C(F)(F)F)CC2)c2cc(-c3ccncc3Cl)c(F)cc12)C1CC1 [Compound 286] | < 500 | > 3000
CC(C)Cn1cc(CCNS(=O)(=O)N(C)C)c2ccc(-c3c(Cl)cccc3Cl)cc21 [Example 80, N-{2-[6-(2,6-dichlorophenyl)-1-(2-methylpropyl)-1H-indol-3-yl]ethyl}-N,N-dimethyl-sulfuric diamide] | < 500 | > 3000
CC(C)Cn1cc(CCNS(=O)(=O)N(C)C)c2ccc(C(F)(F)F)cc21 [Example 105, dimethyl({2-[1-(2-methylpropyl)-6-(trifluoromethyl)-1H-indol-3-yl]ethyl}sulfamoyl)amine] | < 500 | > 3000
Cc1cc2c(CCNS(=O)(=O)N(C)C)cn(CC(C)C)c2cc1C [Example 120, ({2-[5,6-dimethyl-1-(2-methylpropyl)-1H-indol-3-yl]ethyl}sulfamoyl)dimethylamine] | < 500 | > 3000
CC(C)Cn1cc(CCNS(=O)(=O)N(C)C)c2cccc(Br)c21 [Example 137, ({2-[7-bromo-1-(2-methylpropyl)-1H-indol-3-yl]ethyl}sulfamoyl)dimethylamine] | 500 to 3000 | > 3000
CC(C)C(=O)n1cc(C(C)NS(=O)(=O)N(C)C)c2ccc(-c3ccncc3)cc21 (stereo not shown) [Example 180, 1-(3-{1-[(dimethylsulfamoyl)amino]ethyl}-6-(pyridin-4-yl)-1H-indol-1-yl)-2-methylpropan-1-one] | < 500 | > 3000
CC(C)C(=O)n1cc(C(C)NS(=O)(=O)N(C)C)c2ccc(-c3ccccc3C(F)(F)F)cc21 (stereo not shown) [Example 195, 1-(3-{1-[(dimethylsulfamoyl)amino]ethyl}-6-[2-(trifluoromethyl)phenyl]-1H-indol-1-yl)-2-methylpropan-1-one] | < 500 | 500 to 3000
Cc1c(-c2ccncc2)ccc2c(CCNS(=O)(=O)N(C)C)cn(C(=O)C(C)C)c12 [Example 199, 1-(3-{2-[(dimethylsulfamoyl)amino]ethyl}-7-methyl-6-(pyridin-4-yl)-1H-indol-1-yl)-2-methylpropan-1-one] | < 500 | 500 to 3000
Cc1c(-c2ccncc2)ccc2c(CCNS(=O)(=O)N(C)C)cn(CC(C)C)c12 [Example 200, dimethyl({2-[7-methyl-1-(2-methylpropyl)-6-(pyridin-4-yl)-1H-indol-3-yl]ethyl}sulfamoyl)amine] | < 500 | > 3000
CC(C)Cn1cc(CCNS(=O)(=O)N(C)C)c2ccc(-c3ccncc3)nc21 [Example 203, dimethyl({2-[1-(2-methylpropyl)-6-(pyridin-4-yl)-1H-pyrrolo[2,3-b]pyridin-3-yl]ethyl}sulfamoyl)amine] | < 500 | > 3000
